# System: MCF7/siMCJ cells
# Assay: Intracellular ATP levels in MCF7/siMCJ cells after incubation with rotenone
# Assay type: cell-based, human
# Details: rotenone 10 μM, 4 h, versus medium (FIG. 3B)
# Experimental: CD8 T cells and CD4 T cells were purified from spleen and lymph nodes by negative selection as previously described (Auphan et al., 1998 J Immunol 160, 4810-4821; Conze et al., 2002 J Exp Med 195, 811-823), and by positive selection using the MACS system as recommended by the manufacturer (Miltenyi Biotec, Cambridge, Mass.). Purified T cells were stimulated with plate-bound anti-CD3 (2C11) (5 μg/ml) and soluble anti-CD28 (1 μg/ml) (BD Biosciences, Sparks, Md.) mAbs. Proliferation assays were performed using purified CD8 T cells (10^5 cells/well) activated with anti-CD3 and anti-CD28 and labeled with [^3H]-thymidine as previously described (Conze et al., 2002 J Exp Med 195, 811-823). MCF7, MCF7/siMCJ, and 293T cell lines were maintained as previously described (Hatle et al., 2007 Mol Cell Biol 27, 2952-2966). Rotenone (used at 10 μM) was purchased from Sigma Aldrich (St. Louis, Mo.). Transfection of 293T cells by calcium phosphate was performed as previously described (Hatle et al., 2007 Mol Cell Biol 27, 2952-2966).
# The levels of intracellular ATP were determined using […] cells (CD8 T cells, MCF7 cells, 293T cells) per sample and the ATPlite® Luminescence ATP Detection Assay System (PerkinElmer®, Waltham, Mass.) following the recommendations from the manufacturer and a TD-20/20 luminometer (Turner Biosystems, Promega®, Madison, Wis.). […]
smiles,measurement,value
"C=C(C)[C@H]1Cc2c(ccc3c2O[C@@H]2COc4cc(OC)c(OC)cc4[C@@H]2C3=O)O1 [rotenone, Rotenone]",levels of ATP,abrogated the levels of ATP
